According to patent US12433874B2 (PRESCIENCE BIOTECHNOLOGY INC., priority 2022, dated 2025):

How the values were obtained:
[1] = system: CT26 cells (murine colorectal carcinoma cell); experiment: CT26 mouse colon cancer model; format: in vivo; conditions: 5-FU 25 mg/kg Q3d*4, RAP-E 25 mg/kg Q3d*4
Description: CT26 model on Balb/c mice was used as another animal model, classified as three groups: a control group (no drug), a comparative group (administration of 5-FU, dose: 25 mg/kg, Q3d*4) and the inventive group (administration of RAP-E formulation, dose: 25 mg/kg, Q3d*4). 6 week old Balb/c mice (BioLasco, Ilan, Taiwan) were inoculated subcutaneously with 1*10^5 CT26 cells (murine colorectal carcinoma cell). Following tumor inoculation, measuring the tumor size twice a week, and starting treatment when the tumor grows to 80-100 mm^3.

[2] = BCS Class II drug; cited from earlier work
[3] = system: SKOV3 cells (human ovarian cancer cell); format: in vivo; conditions: docetaxel 4 mg/kg Q3d*4; RAP-E 50 mg/kg Q3d*4
Description: Akt and mTOR phosphorylation are frequently detected in ovarian cancer, and SKOV3, an ovarian cancer cell line, is resistant to cis-platinum and doxorubicin.

[4] = tablet form; cited from earlier work

O=c1[nH]cc(F)c(=O)[nH]1 [5-FU]
Mean inhibition rate (tumor volume) [1]: 11%
toxicity (body weight change) [1]: significant weight loss
Day 16 tumor inhibition rate ([1]; day 16): 26%

CO[C@H]1C[C@@H]2CC[C@@H](C)[C@@](O)(O2)C(=O)C(=O)N2CCCC[C@H]2C(=O)O[C@H]([C@H](C)C[C@@H]2CC[C@@H](O)[C@H](OC)C2)CC(=O)[C@H](C)/C=C(\C)[C@@H](O)[C@@H](OC)C(=O)[C@H](C)C[C@H](C)/C=C/C=C/C=C/1C [Rapamycin]
permeability [2]: high permeability

CC(=O)O[C@@]12CO[C@@H]1C[C@H](O)[C@@]1(C)C(=O)[C@H](O)C3=C(C)[C@@H](OC(=O)[C@H](O)[C@@H](NC(=O)OC(C)(C)C)c4ccccc4)C[C@@](O)([C@@H](OC(=O)c4ccccc4)[C@H]21)C3(C)C [docetaxel]
Mean inhibition rate (tumor volume) [3]: 53%

CO[C@H]1C[C@@H]2CC[C@@H](C)[C@@](O)(O2)C(=O)C(=O)N2CCCC[C@H]2C(=O)O[C@H]([C@H](C)C[C@@H]2CC[C@@H](OCCO)[C@H](OC)C2)CC(=O)[C@H](C)/C=C(\C)[C@@H](O)[C@@H](OC)C(=O)[C@H](C)C[C@H](C)/C=C/C=C/C=C/1C [everolimus]
bioavailability [4]: ~20%
